Experimental data taken from patent US8034810B2, “Arylsulfonamido-substituted hydroxamic acid derivatives” (Novartis AG, priority 1999, dated 2011).

What follows are compounds tested against T1, MT1-MMP (Homo sapiens, UniProt P50281) (assay: In vitro inhibition of MT1-MMP, fluorogenic peptide substrate). Conditions: catalytic domain of human MT1-MMP; substrate 10 μM; 37° C.
T1 construct: made in house
Assay type: biochemical
Procedure: The inhibitory activities of compounds of formula I on MT1-MMP, MMP1 (collagenase 1) and MMP2 (gelatinase A) can be determined as follows:
Stock solutions of substrate (MCA-Pro-Leu-Gly-Leu-Dpa-Ala-Arg-NH2, Knight, C. G., Willenbrock, F., Murphy, G., A novel coumarin-labelled peptide for sensitive continuous assays of the matrix metalloproteinases, FEBS lett., 296, 263-266, (1992)), are prepared in 100% DMSO at a concentration 1.0 mM. Stock solutions of inhibitors are prepared in 100% DMSO. The inhibitor is diluted into the assays from a solution in 100% DMSO, and controls substitute an equal volume of DMSO so that the final DMSO concentration from inhibitor and substrate dilutions in all assays is 6.0%. Assays are performed in assay buffer (150 mM NaCl, 10 mM CaCl2, 50 mM Tris-Cl pH7.5, 0.05% Brij-35) containing 6.0% DMSO once the substrate and inhibitor are diluted into it. The substrate concentration used in the assays is 10 μM. The test is carried out at 37° C. The fluorescence changes are monitored using an excitation wavelength of 320 nm and an emission wavelength of […]. The reaction mixture is added in duplicate to appropriate wells of a 96 well microfluor plate. The reaction mixture is preincubated with the inhibitor for 30 min, the reaction is started by the addition of MMP enzyme and the fluorescence intensity is measured for 10 min. A time point that is on a linear part of the curve is chosen to determine the activity. The inhibition results are expressed as the inhibitor concentrations that produced 50% inhibition (IC50) of the activity in the control (non-inhibited) reaction. In this test, the compounds of the formula I and their pharmacologically acceptable salts have an inhibiting concentration IC50 [μmol/litre] of 0.0001 and 0.030, usually of 0.0002 to 0.010, for MMP2 and an inhibiting concentration IC50 [μmol/litre] of 0.0005 and 0.125, usually of 0.001 to 0.05, for MT1-MMP.
Plasmid: The catalytic domain of the cDNA fragment encoding a full length of human MT1-MMP gene [from Prof. Motoharu Seiki, Institute of Medical Science, The University of Tokyo; Sato, H., Takino, T., Okada, Y., Cao, J., Shinagawa, A., Yamamoto, E. and Seiki, M. Nature (London), 370:61-65, 1994)] is amplified by polymerase chain reaction (PCR). […] The resulting PCR product of a 519-bp fragment is subcloned between the NdeI and BamHI unique sites of pET11a (Stratagene). The sequence of catalytic domain of MT1-MMP (CD-MT1-MMP) is verified by the ABI PRIS™ dye terminator cycle sequencing kit with the ABI PRISM™ 377 DNA sequencer (Perkin Elmer).
Expression and Purification: The subcloned CD-MT1-MMP is used to transfect E. coli strain BL21-[DE3] (Hanahan, D. J. Mol. Biol. 1983; 166(4):557-80) and expressed as insoluble inclusion body materials. Transfectants are grown at 37° C. in 50 ml Luria-Bertani (LB) medium in the presence of 50 µg/ml ampicillin to a cell density of OD600=0.6-1.0, and CD-MT1-MMP production is induced with 1 mM isopropyl-1-D-galactopyranoside (IPTG). After treatments with 5 mg/ml lysozyme and 10 μg/ml DNase I, the inclusion bodies are prepared from the harvested cells by using the detergent buffer containing 0.2 M NaCl, 1% w/v deoxycholic acid, and 1% v/v Nonidet P40. The solubilization is achieved by resuspending the inclusion bodies in the solubilization buffer composed of 6 M urea, 100 mM 2-mercaptoethanol, and 20 mM Tris-Cl, pH8.5. The enzyme is purified and renaturated using 10 ml of a Q-Sepharose (Amersham Pharmacia Biotech) column equilibrated with 5 mM CaCl2, 0.02% v/v NaN3, in 20 mM Tris-Cl pH7.5. After washing with three volumes of the same buffer, the bound proteins are eluted with two volumes of a linear gradient of 0.5-1.0 M NaCl. The collected fractions (1 ml each) are dialyzed for 6 h in equilibrated buffer. Superdex G200 column (1×15 cm) (Amersham Pharmacia) is equilibrated in 20 mM Tris-Cl, pH 7.5, 5 mM CaCl2, 0.02% NaN3. The desalted sample is applied to Superdex G200 column and chromatographed at 0.5 ml/min. […]

**Q.** Which IC50 does the source give for `O=C(NO)[C@@H](Cc1ccccc1)N(Cc1ccc(Cl)cc1)S(=O)(=O)c1ccc(OCCCF)cc1` [Example 30, (R)-2-{(4-chloro-benzyl)-[4-(3-fluoro-propoxy)-benzenesulfonyl]-amino}-N-hydroxy-3-phenyl-propionamide] here?
**A.** 12.7 nM

**Q.** With `COc1ccc(CN([C@H](CC(C)C)C(=O)NO)S(=O)(=O)c2ccc(OCCCCF)cc2)cc1` [Example 53, (R)-2-{[4-(4-fluoro-butoxy)-benzenesulfonyl]-(4-methoxy-benzyl)-amino}-N-hydroxy-4-methyl-valeramide] as the compound, how does the IC50 read?
**A.** 9.2 nM

**Q.** For `COc1cccc(CN([C@H](C)C(=O)NO)S(=O)(=O)c2ccc(OCCCCl)cc2)c1` [Example 15, (R)-2-{[4-(3-chloro-propoxy)-benzenesulfonyl]-(3-methoxy-benzyl)-amino}-N-hydroxy-propionamide], which IC50 is on record?
**A.** 3.7 nM

**Q.** For `C=CCCOc1ccc(S(=O)(=O)N(Cc2cccc(OC)c2)[C@@H](C(=O)NO)C(C)C)cc1` [Example 13, (R)-2-[(4-but-3-enyloxy-benzenesulfonyl)-(3-methoxy-benzyl)-amino]-N-hydroxy-3-methyl-butyramide], which IC50 is on record?
**A.** 5.5 nM
